This assay has as its system Plasmopara viticola. The assay can be described thus: Plasmopara viticola/Grape/Curative (Grape Downy Mildew). Format: in vivo. Particulars: 200 ppm; grape seedlings cv. Gutedel, inoculated one day before application, assessed 4-6 days after application. The method, then: Plasmopara viticola/Grape/Curative (Grape Downy Mildew)
5-week-old grape seedlings cv. Gutedel are inoculated by spraying a sporangia suspension on their lower leaf surface one day before application. The inoculated grape plants are sprayed in a spray chamber with the formulated test compound diluted in water. The inoculated test plants are incubated at 22° C. and 100% rh in a greenhouse and the percentage leaf area covered by disease is assessed when an appropriate level of disease appears on untreated check plants (4-6 days after application).

The text below walks through data of patent US20120258990A1 (priority 2009, published 2012).

Consider `Cc1cc(C(F)(F)F)nn1CC(=O)N(C)CCCc1nc(C(=O)N(C)[C@@H]2CCCc3ccccc32)cs1` [Compound I.d.55, 2-(3-{methyl-[2-(5-methyl-3-trifluoromethyl-pyrazol-1-yl)-acetyl]-amino}-propyl)-thiazole-4-carboxylic acid methyl-(R)-1,2,3,4-tetrahydro-naphthalen-1-yl-amide], for which the disease control entry is “at least 80%”.
